Test results as given in publication PMC5908784, “Extracellular loops 2 and 3 of the calcitonin receptor selectively modify agonist binding and efficacy” (Biochemical Pharmacology, 2018).
Changes are numbered by the printed parent chain. Where a SMILES comes first, the peptide text is derived from it. Bridges are numbered along the chain shown (N, C = ends).

Legend:
Test in all cases: ERK1/2 phosphorylation
Type in all cases: cell-based
hCTR I279A = biological target: T1, hCTR I279A (Homo sapiens, UniProt P30988, I279A); conditions: CV1-FlpIn cells, mean ± S.E.M.; for Emax: pERK maximal response
T1 construct: expressed in transfected cells
T1 sequence (P30988 25-474 I279A): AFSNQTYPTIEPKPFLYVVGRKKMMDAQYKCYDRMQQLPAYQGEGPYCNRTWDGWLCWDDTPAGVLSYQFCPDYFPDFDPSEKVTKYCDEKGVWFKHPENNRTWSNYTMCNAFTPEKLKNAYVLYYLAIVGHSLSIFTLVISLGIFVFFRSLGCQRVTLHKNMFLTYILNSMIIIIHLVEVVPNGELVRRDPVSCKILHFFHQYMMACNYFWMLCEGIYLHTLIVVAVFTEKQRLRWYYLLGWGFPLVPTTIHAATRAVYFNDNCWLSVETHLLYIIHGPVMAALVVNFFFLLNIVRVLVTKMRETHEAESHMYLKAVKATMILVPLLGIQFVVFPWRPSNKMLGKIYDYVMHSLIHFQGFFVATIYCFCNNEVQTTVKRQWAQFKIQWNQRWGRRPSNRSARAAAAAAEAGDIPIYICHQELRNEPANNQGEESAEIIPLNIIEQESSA
Procedure: (§1) Cells (2.5 × 10^4 cells/well) were seeded into 96-well culture plates and incubated overnight. […] Data were normalized to the maximal response elicited by 10% FBS determined at 6 min.
(§2) Data were corrected for radioligand occupancy using the Cheng-Prusoff equation in Prism; as such data are reported as pKi. Emax and EC50 were estimated from concentration-response curves using with a 3-parameter logistic equation in Prism (v7). These values are a composite of functional affinity, efficacy and stimulus response coupling. […] Significance was accepted at P < 0.05.

hCTR I300A = biological target: T2, hCTR I300A (Homo sapiens, UniProt P30988, I300A); conditions: CV1-FlpIn cells, mean ± S.E.M.; for Emax: pERK maximal response; for EC50: pERK, three-parameter logistic fit
T2 construct: c-Myc (N); expressed in transfected cells
T2 sequence (P30988 25-474 I300A): T1 sequence (P30988 25-474 I279A) with A255I, I276A
Procedure: as §1, §2

hCTR V375A = biological target: T3, hCTR V375A (Homo sapiens, UniProt P30988, V375A); conditions: CV1-FlpIn cells, mean ± S.E.M.; for Emax: pERK maximal response; for EC50: pERK, three-parameter logistic fit
T3 construct: c-Myc (N); expressed in transfected cells
T3 sequence (P30988 25-474 V375A): T1 sequence (P30988 25-474 I279A) with A255I, V351A
Procedure: as §1, §2

hCTR WT = biological target: T4, hCTR WT (Homo sapiens, UniProt P30988); conditions: CV1-FlpIn cells, mean ± S.E.M.; for Emax: pERK maximal response; for EC50: pERK, three-parameter logistic fit
T4 construct: expressed in transfected cells
T4 sequence (P30988 25-474): T1 sequence (P30988 25-474 I279A) with A255I
Procedure: as §1, §2

hCTR Y374A = biological target: T5, hCTR Y374A (Homo sapiens, UniProt P30988, Y374A); conditions: CV1-FlpIn cells, mean ± S.E.M.; for Emax: pERK maximal response; for EC50: pERK, three-parameter logistic fit
T5 construct: c-Myc (N); expressed in transfected cells
T5 sequence (P30988 25-474 Y374A): T1 sequence (P30988 25-474 I279A) with A255I, Y350A
Procedure: as §1, §2

Row | EC50 (hCTR I300A) [nM] | EC50 (hCTR V375A) [nM] | EC50 (hCTR WT) [nM] | EC50 (hCTR Y374A) [nM] | EC50 (hCTR I279A; pERK, three-parameter logistic fit) [nM] | SMILES | Emax (hCTR I279A) [%] | Emax (hCTR I300A) [%] | Emax (hCTR V375A) [%] | Emax (hCTR WT) [%] | Emax (hCTR Y374A) [%]
1 | – | – | – | – | – | CC[C@H](C)[C@H](NC(=O)[C@H](C)NC(=O)[C@@H](NC(=O)[C@H](CCC(N)=O)NC(=O)[C@@H]1CCCN1C(=O)[C@H](Cc1ccccc1)NC(=O)[C@@H](NC(=O)[C@H](Cc1c[nH]cn1)NC(=O)[C@H](Cc1ccccc1)NC(=O)[C@H](CCCCN)NC(=O)[C@H](CC(N)=O)NC(=O)[C@H](Cc1ccccc1)NC(=O)[C@H](CC(=O)O)NC(=O)[C@H](CCC(N)=O)NC(=O)[C@@H](NC(=O)[C@H](Cc1ccc(O)cc1)NC(=O)[C@@H](NC(=O)CNC(=O)[C@H](CC(C)C)NC(=O)[C@H](CCSC)NC(=O)[C@@H]1CSSC[C@H](N)C(=O)NCC(=O)N[C@@H](CC(N)=O)C(=O)N[C@@H](CC(C)C)C(=O)N[C@@H](CO)C(=O)N[C@@H]([C@@H](C)O)C(=O)N1)[C@@H](C)O)[C@@H](C)O)[C@@H](C)O)[C@@H](C)O)C(=O)NCC(=O)N[C@H](C(=O)NCC(=O)N[C@@H](C)C(=O)N1CCC[C@H]1C(N)=O)C(C)C [hCT] | 143 ± 10 | 65 ± 6 | 67 ± 3 | 100 ± 3 | 94 ± 4
2 | 67.6 | 110 | 77.6 | 61.7 | – | CC(C)C[C@H](NC(=O)CNC(=O)[C@H](C)NC(=O)[C@H](CC(C)C)NC(=O)[C@H](CCCNC(=N)N)NC(=O)[C@H](Cc1cnc[nH]1)NC(=O)[C@@H](NC(=O)[C@@H](NC(=O)[C@@H]1CSSC[C@H](NC(=O)[C@H](C)N)C(=O)N[C@@H](CC(=O)O)C(=O)N[C@@H]([C@@H](C)O)C(=O)N[C@@H](C)C(=O)N[C@@H]([C@@H](C)O)C(=O)N1)C(C)C)[C@@H](C)O)C(=O)N[C@@H](CC(C)C)C(=O)N[C@@H](CO)C(=O)N[C@@H](CCCNC(=N)N)C(=O)N[C@@H](CO)C(=O)NCC(=O)NCC(=O)N[C@H](C(=O)N[C@H](C(=O)N[C@@H](CCCCN)C(=O)N[C@@H](CC(N)=O)C(=O)N[C@@H](CC(N)=O)C(=O)N[C@@H](Cc1ccccc1)C(=O)N[C@H](C(=O)N1CCC[C@H]1C(=O)N[C@H](C(=O)N[C@@H](CC(N)=O)C(=O)N[C@H](C(=O)NCC(=O)N[C@@H](CO)C(=O)N[C@@H](CCCCN)C(=O)N[C@@H](C)C(=O)N[C@@H](Cc1ccccc1)C(N)=O)C(C)C)[C@@H](C)O)C(C)C)C(C)C)C(C)C [hαCGRP] | 97 ± 11 | 61 ± 13 | 58 ± 7 | 100 ± 6 | 49 ± 8
3 | 0.282 | 2.63 | 1.12 | 2.69 | 2.19 | CSCC[C@H](NC(=O)CNC(=O)[C@H](CO)NC(=O)[C@H](Cc1ccccc1)NC(=O)[C@H](CCCNC(=N)N)NC(=O)[C@H](Cc1c[nH]cn1)NC(=O)[C@H](Cc1ccccc1)NC(=O)[C@H](CC(N)=O)NC(=O)[C@H](CC(N)=O)NC(=O)[C@H](CC(C)C)NC(=O)[C@H](CC(N)=O)NC(=O)[C@H](CCCNC(=N)N)NC(=O)[C@H](Cc1c[nH]c2ccccc12)NC(=O)[C@H](Cc1ccc(O)cc1)NC(=O)[C@H](C)NC(=O)[C@H](CO)NC(=O)[C@H](CC(C)C)NC(=O)[C@@H](NC(=O)[C@@H]1CSSC[C@H](N)C(=O)N[C@@H](CO)C(=O)N[C@@H](CC(N)=O)C(=O)N[C@@H](CC(C)C)C(=O)N[C@@H](CO)C(=O)N[C@@H]([C@@H](C)O)C(=O)N1)C(C)C)C(=O)NCC(=O)N[C@@H](Cc1ccccc1)C(=O)NCC(=O)N1CCC[C@H]1C(=O)N[C@@H](CCC(=O)O)C(=O)N[C@H](C(=O)N1CCC[C@H]1C(N)=O)[C@@H](C)O [pCT] (H-CSNLSTCVLSAYWRNLNNFHRFSGMGFGPETP-NH2; disulfide 1-7) | 122 ± 7 | 54 ± 3 | 89 ± 4 | 100 ± 3 | 105 ± 8
4 | – | – | – | – | – | CC(C)C[C@H](NC(=O)[C@H](CC(N)=O)NC(=O)[C@H](CC(N)=O)NC(=O)[C@H](CO)NC(=O)[C@H](CO)NC(=O)[C@H](CCCNC(=N)N)NC(=O)[C@@H](NC(=O)[C@H](CC(C)C)NC(=O)[C@H](Cc1ccccc1)NC(=O)[C@H](CC(N)=O)NC(=O)[C@H](C)NC(=O)[C@H](CC(C)C)NC(=O)[C@H](CCCNC(=N)N)NC(=O)[C@H](CCC(N)=O)NC(=O)[C@@H](NC(=O)[C@H](C)NC(=O)[C@@H]1CSSC[C@H](NC(=O)[C@@H](N)CCCCN)C(=O)N[C@@H](CC(N)=O)C(=O)N[C@@H]([C@@H](C)O)C(=O)N[C@@H](C)C(=O)N[C@@H]([C@@H](C)O)C(=O)N1)[C@@H](C)O)C(C)C)C(=O)NCC(=O)N1CCC[C@H]1C(=O)N[C@H](C(=O)N[C@@H](CC(C)C)C(=O)N1CCC[C@H]1C(=O)N1CCC[C@H]1C(=O)N[C@H](C(=O)N[C@@H](CC(N)=O)C(=O)N[C@H](C(=O)NCC(=O)N[C@@H](CO)C(=O)N[C@@H](CC(N)=O)C(=O)N[C@H](C(=O)N[C@@H](Cc1ccc(O)cc1)C(N)=O)[C@@H](C)O)C(C)C)[C@@H](C)O)C(C)C [rAmy] | 88 ± 9 | 44 ± 5 | 77 ± 13 | 100 ± 5 | 61 ± 5
5 | – | – | – | – | – | CC(C)C[C@H](NC(=O)[C@H](CCCCN)NC(=O)CNC(=O)[C@H](CC(C)C)NC(=O)[C@@H](NC(=O)[C@@H]1CSSC[C@H](N)C(=O)N[C@@H](CO)C(=O)N[C@@H](CC(N)=O)C(=O)N[C@@H](CC(C)C)C(=O)N[C@@H](CO)C(=O)N[C@@H]([C@@H](C)O)C(=O)N1)C(C)C)C(=O)N[C@@H](CO)C(=O)N[C@@H](CCC(N)=O)C(=O)N[C@@H](CCC(=O)O)C(=O)N[C@@H](CC(C)C)C(=O)N[C@@H](Cc1c[nH]cn1)C(=O)N[C@@H](CCCCN)C(=O)N[C@@H](CC(C)C)C(=O)N[C@@H](CCC(N)=O)C(=O)N[C@H](C(=O)N[C@@H](Cc1ccc(O)cc1)C(=O)N1CCC[C@H]1C(=O)N[C@@H](CCCNC(=N)N)C(=O)N[C@H](C(=O)N[C@@H](CC(N)=O)C(=O)N[C@H](C(=O)NCC(=O)N[C@@H](CO)C(=O)NCC(=O)N[C@H](C(=O)N1CCC[C@H]1C(N)=O)[C@@H](C)O)[C@@H](C)O)[C@@H](C)O)[C@@H](C)O [sCT] | 126 ± 5 | 63 ± 3 | 70 ± 3 | 100 ± 3 | 99 ± 5
